Laboratory results taken from ChEMBL document CHEMBL1201862, “PubChem BioAssay data set” (2004).
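Tested at 5 concentrations; 48 h exposure; 96-well plates; endpoints linearly interpolated, else capped at highest concentration. GI50 = concentration required for 50% inhibition of growth.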 Calls of active or inactive are those of the source. No stated cut-off is given here; in the data, active = GI50 up to about 1.1 µM and inactive = higher.

Key:
Test in all cases: NCI anticancer screen, dose series, 48 h
SK-OV-3 = system: SK-OV-3
MDA-MB-231 = system: MDA-MB-231
A549 = system: A549
SF-539 = system: SF-539
NCI-H23 = system: NCI-H23
NCI-H460 = system: NCI-H460
HL-60 = system: HL-60
K562 = system: K562
SF-268 = system: SF-268
NCI/ADR-RES = system: NCI/ADR-RES
HCT-116 = system: HCT-116
MCF7 = system: MCF7
SN12C = system: SN12C
DU-145 = system: DU-145
RXF 393 = system: RXF 393
OVCAR-5 = system: OVCAR-5
NCI-H522 = system: NCI-H522
SK-MEL-28 = system: SK-MEL-28
Malme-3M = system: Malme-3M

Compound	GI50 (SK-OV-3)	GI50 (MDA-MB-231)	GI50 (A549)	GI50 (SF-539)	GI50 (NCI-H23)	GI50 (NCI-H460)	GI50 (HL-60)	GI50 (K562)	GI50 (SF-268)	GI50 (NCI/ADR-RES)	GI50 (HCT-116)	GI50 (MCF7)	GI50 (SN12C)	GI50 (DU-145)	GI50 (RXF 393)	GI50 (OVCAR-5)	GI50 (NCI-H522)	GI50 (SK-MEL-28)	GI50 (Malme-3M)
CC(=O)NC1(c2cc3ccccc3s2)CCCCCC1	37.1 µM (inactive)	40.4 µM (inactive)	38.9 µM (inactive)	51.5 µM (inactive)	35.2 µM (inactive)	36.6 µM (inactive)	23.4 µM (inactive)	23.8 µM (inactive)	21.3 µM (inactive)	38.3 µM (inactive)	35.3 µM (inactive)	37.2 µM (inactive)	42.3 µM (inactive)	51.3 µM (inactive)	29.6 µM (inactive)	36.7 µM (inactive)	20.7 µM (inactive)	54 µM (inactive)	–
CC(=O)CCn1c(=S)sc2ccccc21	86.9 µM (inactive)	> 100 µM (inactive)	> 100 µM (inactive)	> 100 µM (inactive)	> 100 µM (inactive)	> 100 µM (inactive)	17.5 µM (inactive)	–	> 100 µM (inactive)	> 100 µM (inactive)	> 100 µM (inactive)	> 100 µM (inactive)	> 100 µM (inactive)	> 100 µM (inactive)	> 100 µM (inactive)	> 100 µM (inactive)	19.4 µM (inactive)	> 100 µM (inactive)	–
CCOc1ccc(/N=N/c2ccc(-c3ccc(/N=N/c4c(O)ccc5cc(S(=O)(=O)O)cc(S(=O)(=O)O)c45)cc3)cc2)cc1	> 100 µM (inactive)	> 100 µM (inactive)	> 100 µM (inactive)	> 100 µM (inactive)	> 100 µM (inactive)	> 100 µM (inactive)	> 100 µM (inactive)	> 100 µM (inactive)	> 100 µM (inactive)	> 100 µM (inactive)	> 100 µM (inactive)	> 100 µM (inactive)	–	–	> 100 µM (inactive)	> 100 µM (inactive)	63.2 µM (inactive)	> 100 µM (inactive)	18.5 µM (inactive)
NC1(C(=O)O)CCC(C(=O)O)CC1 (stereo not drawn)	> 100 µM (inactive)	–	> 100 µM (inactive)	> 100 µM (inactive)	> 100 µM (inactive)	> 100 µM (inactive)	> 100 µM (inactive)	> 100 µM (inactive)	> 100 µM (inactive)	–	> 100 µM (inactive)	–	> 100 µM (inactive)	–	> 100 µM (inactive)	> 100 µM (inactive)	> 100 µM (inactive)	> 100 µM (inactive)	> 100 µM (inactive)
CCOC(=O)C(=O)Nc1c(C)cccc1CC	> 100 µM (inactive)	–	> 100 µM (inactive)	> 100 µM (inactive)	> 100 µM (inactive)	> 100 µM (inactive)	> 100 µM (inactive)	> 100 µM (inactive)	> 100 µM (inactive)	–	> 100 µM (inactive)	–	> 100 µM (inactive)	–	> 100 µM (inactive)	> 100 µM (inactive)	> 100 µM (inactive)	> 100 µM (inactive)	> 100 µM (inactive)
Clc1ccccc1NN(Cc1ccncc1)c1ccccc1Cl	28.1 µM (inactive)	13.6 µM (inactive)	12.5 µM (inactive)	18.2 µM (inactive)	15.6 µM (inactive)	–	17 µM (inactive)	10.4 µM (inactive)	18.1 µM (inactive)	13.8 µM (inactive)	13 µM (inactive)	22.3 µM (inactive)	13.6 µM (inactive)	17.5 µM (inactive)	16 µM (inactive)	17.5 µM (inactive)	12.1 µM (inactive)	20.3 µM (inactive)	17.7 µM (inactive)
Cc1cc(N(CCC#N)CCC#N)ccc1/N=N/c1ccc([N+](=O)[O-])cc1	> 10 µM (inactive)	–	> 100 µM (inactive)	> 100 µM (inactive)	43 µM (inactive)	39.4 µM (inactive)	> 100 µM (inactive)	> 100 µM (inactive)	> 100 µM (inactive)	–	17.7 µM (inactive)	–	65.8 µM (inactive)	–	32.5 µM (inactive)	> 100 µM (inactive)	> 100 µM (inactive)	> 100 µM (inactive)	> 100 µM (inactive)
O=C(Cn1cc(-c2ccccc2)nn1)NC1CCCC1	–	> 100 µM (inactive)	> 100 µM (inactive)	> 100 µM (inactive)	> 100 µM (inactive)	> 100 µM (inactive)	> 100 µM (inactive)	> 100 µM (inactive)	> 100 µM (inactive)	> 100 µM (inactive)	> 100 µM (inactive)	> 100 µM (inactive)	> 100 µM (inactive)	> 100 µM (inactive)	–	> 100 µM (inactive)	> 100 µM (inactive)	> 100 µM (inactive)	> 100 µM (inactive)
N#C[BH2-][n+]1ccc(C(=O)NNC(c2ccccc2)C(F)(F)F)cc1 (stereo not drawn)	–	> 100 µM (inactive)	> 100 µM (inactive)	> 100 µM (inactive)	31.7 µM (inactive)	> 100 µM (inactive)	> 100 µM (inactive)	> 100 µM (inactive)	> 100 µM (inactive)	> 100 µM (inactive)	> 100 µM (inactive)	> 100 µM (inactive)	> 100 µM (inactive)	> 100 µM (inactive)	–	> 100 µM (inactive)	68.9 µM (inactive)	> 100 µM (inactive)	> 100 µM (inactive)
Cc1cc(C2CCCCC2)n(O)c(=O)c1 [CICLOPIROX OLAMINE]	47 µM (inactive)	–	3.91 µM (inactive)	5.52 µM (inactive)	9.08 µM (inactive)	2.32 µM (inactive)	0.178 µM (active)	3.41 µM (inactive)	4.25 µM (inactive)	–	3.7 µM (inactive)	–	12.5 µM (inactive)	–	16.5 µM (inactive)	8.28 µM (inactive)	2.96 µM (inactive)	12.6 µM (inactive)	15.7 µM (inactive)
CNS(=O)(=O)NNS(=O)(=O)c1ccc(C)cc1	> 100 µM (inactive)	–	> 100 µM (inactive)	> 100 µM (inactive)	> 100 µM (inactive)	> 100 µM (inactive)	> 100 µM (inactive)	> 100 µM (inactive)	> 100 µM (inactive)	–	> 100 µM (inactive)	–	> 100 µM (inactive)	–	> 100 µM (inactive)	> 100 µM (inactive)	> 100 µM (inactive)	> 100 µM (inactive)	> 100 µM (inactive)
CC(=O)NC(CCCN(Cc1ccccc1)C(=O)N(CCCl)N=O)C(=O)NCc1ccccc1 (stereo not drawn)	55.6 µM (inactive)	–	16.1 µM (inactive)	2.54 µM (inactive)	27 µM (inactive)	3.32 µM (inactive)	8.71 µM (inactive)	68.4 µM (inactive)	3.89 µM (inactive)	–	37.8 µM (inactive)	–	46.3 µM (inactive)	–	21.8 µM (inactive)	35.2 µM (inactive)	57.1 µM (inactive)	78.3 µM (inactive)	> 53.1 µM (inactive)
Cc1ccc(Oc2cc(C)ccc2P(=O)(O)O)cc1	> 100 µM (inactive)	> 100 µM (inactive)	> 100 µM (inactive)	> 100 µM (inactive)	> 100 µM (inactive)	–	> 100 µM (inactive)	> 100 µM (inactive)	> 100 µM (inactive)	–	> 100 µM (inactive)	> 100 µM (inactive)	> 100 µM (inactive)	> 100 µM (inactive)	> 100 µM (inactive)	–	> 100 µM (inactive)	> 100 µM (inactive)	–
CSc1nncc(-c2cc3c(c(SC)n2)CCCC3)n1	40.1 µM (inactive)	> 100 µM (inactive)	> 100 µM (inactive)	> 100 µM (inactive)	> 100 µM (inactive)	> 100 µM (inactive)	> 100 µM (inactive)	> 100 µM (inactive)	26.9 µM (inactive)	> 100 µM (inactive)	> 100 µM (inactive)	–	> 100 µM (inactive)	> 100 µM (inactive)	47.3 µM (inactive)	> 100 µM (inactive)	53.7 µM (inactive)	> 100 µM (inactive)	–
N#CN1CCC=C(c2cc3ccccc3[nH]2)C1	> 448 µM (inactive)	–	394 µM (inactive)	> 448 µM (inactive)	182 µM (inactive)	> 448 µM (inactive)	164 µM (inactive)	421 µM (inactive)	210 µM (inactive)	–	285 µM (inactive)	–	356 µM (inactive)	–	256 µM (inactive)	> 448 µM (inactive)	109 µM (inactive)	382 µM (inactive)	442 µM (inactive)
C=CC1(C)/C(=N\O)C(C)(CC)C(=O)N1O (stereo not drawn)	> 100 µM (inactive)	–	> 100 µM (inactive)	> 100 µM (inactive)	> 100 µM (inactive)	> 100 µM (inactive)	> 100 µM (inactive)	> 100 µM (inactive)	> 100 µM (inactive)	–	> 100 µM (inactive)	–	> 100 µM (inactive)	–	> 100 µM (inactive)	> 100 µM (inactive)	> 100 µM (inactive)	> 100 µM (inactive)	> 100 µM (inactive)
CC1(C)CC(=O)C(=CNC(N)=S)C(=O)C1	> 100 µM (inactive)	> 100 µM (inactive)	> 100 µM (inactive)	> 100 µM (inactive)	> 100 µM (inactive)	> 100 µM (inactive)	> 100 µM (inactive)	–	> 100 µM (inactive)	> 100 µM (inactive)	> 100 µM (inactive)	> 100 µM (inactive)	> 100 µM (inactive)	> 100 µM (inactive)	> 100 µM (inactive)	> 100 µM (inactive)	> 100 µM (inactive)	> 100 µM (inactive)	–
